Assay results: PubChem BioAssay (NCI)
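Dose response: 5 concentrations. Exposure: 48 h. Format: 96-well plates. Endpoint: linear interpolation; highest concentration if not reached. Definition used: TGI = concentration required for complete inhibition of growth.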

Legend:
Experiment in all cases: NCI tumour cell line growth inhibition, 48 h
786-0 renal = test system: 786-0 renal
A498 renal = test system: A498 renal
A549 NSCLC = test system: A549 NSCLC
ACHN renal = test system: ACHN renal
BT-549 breast = test system: BT-549 breast
CAKI-1 renal = test system: CAKI-1 renal
CCRF-CEM leukemia = test system: CCRF-CEM leukemia
COLO 205 colon = test system: COLO 205 colon
DLD-1 colon = test system: DLD-1 colon
DMS 114 small cell lung = test system: DMS 114 small cell lung
DMS 273 small cell lung = test system: DMS 273 small cell lung
DU-145 prostate = test system: DU-145 prostate
EKVX NSCLC = test system: EKVX NSCLC
HCC-2998 colon = test system: HCC-2998 colon
HCT-116 colon = test system: HCT-116 colon
HCT-15 colon = test system: HCT-15 colon
HL-60(TB) leukemia = test system: HL-60(TB) leukemia
HOP-18 NSCLC = test system: HOP-18 NSCLC
HOP-62 NSCLC = test system: HOP-62 NSCLC
HOP-92 NSCLC = test system: HOP-92 NSCLC
HS 578T breast = test system: HS 578T breast
HT29 colon = test system: HT29 colon
IGROV1 ovarian = test system: IGROV1 ovarian
K-562 leukemia = test system: K-562 leukemia
KM12 colon = test system: KM12 colon
KM20L2 colon = test system: KM20L2 colon
LOX IMVI melanoma = test system: LOX IMVI melanoma
M14 melanoma = test system: M14 melanoma
M19-MEL melanoma = test system: M19-MEL melanoma
MALME-3M melanoma = test system: MALME-3M melanoma
MCF7 breast = test system: MCF7 breast
MDA-MB-231 breast = test system: MDA-MB-231 breast
MDA-MB-435 = test system: MDA-MB-435
MDA-N = test system: MDA-N
MOLT-4 leukemia = test system: MOLT-4 leukemia
NCI-H226 lung = test system: NCI-H226 lung
NCI-H23 lung = test system: NCI-H23 lung
NCI-H460 lung = test system: NCI-H460 lung
NCI-H522 lung = test system: NCI-H522 lung
NCI/ADR-RES ovarian = test system: NCI/ADR-RES ovarian
OVCAR-3 ovarian = test system: OVCAR-3 ovarian
OVCAR-4 ovarian = test system: OVCAR-4 ovarian
OVCAR-5 ovarian = test system: OVCAR-5 ovarian
OVCAR-8 ovarian = test system: OVCAR-8 ovarian
P388 leukemia = test system: P388 leukemia
P388/ADR leukemia = test system: P388/ADR leukemia
PC-3 prostate = test system: PC-3 prostate
RPMI-8226 leukemia = test system: RPMI-8226 leukemia
RXF 393 renal = test system: RXF 393 renal
SF-268 CNS = test system: SF-268 CNS
SF-295 CNS = test system: SF-295 CNS
SF-539 CNS = test system: SF-539 CNS
SK-MEL-2 melanoma = test system: SK-MEL-2 melanoma
SK-MEL-28 melanoma = test system: SK-MEL-28 melanoma
SK-MEL-5 melanoma = test system: SK-MEL-5 melanoma
SK-OV-3 ovarian = test system: SK-OV-3 ovarian
SN12C renal = test system: SN12C renal
SN12K1 renal = test system: SN12K1 renal
SNB-19 CNS = test system: SNB-19 CNS
SNB-75 CNS = test system: SNB-75 CNS
SNB-78 CNS = test system: SNB-78 CNS
SR leukemia = test system: SR leukemia
SW-620 colon = test system: SW-620 colon
T-47D breast = test system: T-47D breast
TK-10 renal = test system: TK-10 renal
U251 CNS = test system: U251 CNS
UACC-257 melanoma = test system: UACC-257 melanoma
UACC-62 melanoma = test system: UACC-62 melanoma
UO-31 renal = test system: UO-31 renal

## Cc1c2cc[n+](C)c(C)c2cc2c1[nH]c1ccccc12
786-0 renal
  TGI: > 39.5 µM
A498 renal
  TGI: > 100 µM
A549 NSCLC
  TGI: 68.7 µM
ACHN renal
  TGI: > 100 µM
BT-549 breast
  TGI: 18.9 µM
CAKI-1 renal
  TGI: > 91.9 µM
CCRF-CEM leukemia
  TGI: 75.3 µM
COLO 205 colon
  TGI: 5.54 µM
DLD-1 colon
  TGI: > 100 µM
DMS 114 small cell lung
  TGI: 10.4 µM
DMS 273 small cell lung
  TGI: 39.1 µM
DU-145 prostate
  TGI: > 78 µM
EKVX NSCLC
  TGI: 42.7 µM
HCC-2998 colon
  TGI: 32.2 µM
HCT-116 colon
  TGI: > 86.1 µM
HCT-15 colon
  TGI: > 100 µM
HL-60(TB) leukemia
  TGI: 82.1 µM
HOP-18 NSCLC
  TGI: 11.8 µM
HOP-62 NSCLC
  TGI: 37.5 µM
HOP-92 NSCLC
  TGI: 50.8 µM
HS 578T breast
  TGI: 7.54 µM
HT29 colon
  TGI: 83.8 µM
IGROV1 ovarian
  TGI: > 100 µM
K-562 leukemia
  TGI: 61.3 µM
KM12 colon
  TGI: 21.1 µM
KM20L2 colon
  TGI: 44.5 µM
LOX IMVI melanoma
  TGI: > 92.2 µM
M14 melanoma
  TGI: > 100 µM
M19-MEL melanoma
  TGI: 11.9 µM
MALME-3M melanoma
  TGI: 14.2 µM
MCF7 breast
  TGI: 70.1 µM
MDA-MB-231 breast
  TGI: > 36.3 µM
MDA-MB-435
  TGI: > 75.2 µM
MDA-N
  TGI: > 93.8 µM
MOLT-4 leukemia
  TGI: 75.2 µM
NCI-H226 lung
  TGI: 10.8 µM
NCI-H23 lung
  TGI: 16.3 µM
NCI-H460 lung
  TGI: 26.5 µM
NCI-H522 lung
  TGI: 18.2 µM
NCI/ADR-RES ovarian
  TGI: > 93.4 µM
OVCAR-3 ovarian
  TGI: 57.7 µM
OVCAR-4 ovarian
  TGI: 43.3 µM
OVCAR-5 ovarian
  TGI: 82.6 µM
OVCAR-8 ovarian
  TGI: > 93.4 µM
P388 leukemia
  TGI: 86.6 µM
P388/ADR leukemia
  TGI: > 100 µM
PC-3 prostate
  TGI: > 100 µM
RPMI-8226 leukemia
  TGI: 73.5 µM
RXF 393 renal
  TGI: > 100 µM
SF-268 CNS
  TGI: 5.6 µM
SF-295 CNS
  TGI: 32.3 µM
SF-539 CNS
  TGI: 46.2 µM
SK-MEL-2 melanoma
  TGI: 30.5 µM
SK-MEL-28 melanoma
  TGI: 26.4 µM
SK-MEL-5 melanoma
  TGI: 11 µM
SK-OV-3 ovarian
  TGI: 89.2 µM
SN12C renal
  TGI: 8.54 µM
SN12K1 renal
  TGI: 16.8 µM
SNB-19 CNS
  TGI: 7.22 µM
SNB-75 CNS
  TGI: 6.98 µM
SNB-78 CNS
  TGI: 72.2 µM
SR leukemia
  TGI: > 100 µM
SW-620 colon
  TGI: > 95.1 µM
T-47D breast
  TGI: 10.4 µM
TK-10 renal
  TGI: > 100 µM
U251 CNS
  TGI: 8.41 µM
UACC-257 melanoma
  TGI: 65.8 µM
UACC-62 melanoma
  TGI: 48.8 µM
UO-31 renal
  TGI: > 100 µM
